This note sets out measurements from patent publication US20200385777A1, “METHOD FOR DETERMINING DYSBIOSIS IN THE INTESTINAL MICROBIOME” (EVOLVE BIOSYSTEMS, INC., priority 2018, published 2020).

SMILES strings stand for the structures.

For the test, the system named is Clostridium difficile. Kind of test: Equine trial: Clostridium difficile diarrhea outcome in foals. It is filed as in vivo, horse. Particulars: all foals dosed at birth with 6.6 mg/kg. How it is done:
Seventeen foals were born during the initiation of the outbreak, of which fifteen animals became ill and required intervention, applying the standard of care (i.e., antibiotic treatment) and two died. […] All treated animals were given doses immediately at birth and twice per day thereafter for 4 days. […] Two foals, who were dosed starting at 12 hours of life rather than immediately at birth, developed a mild infection by Clostridium difficile but recovered within 8 hr compared to the standard recovery time of >24 hr for sick animals given the standard of care. […] A Fisher's exact test of the two populations (Standard of Care and Probiotic treated) yields a significant difference in incidences of C. difficile infection (p=0.0036) (Table 10).

Turning to `CO/N=C(\C(=O)N[C@@H]1C(=O)N2C(C(=O)O)=C(CSC(=O)c3ccco3)CS[C@H]12)c1csc(N)n1` [ceftiofur], the “Effect on health outcome related to diarrhea” value was “did not affect health outcome”.
